Laboratory results reported in US4507318A, “1-Aryl 2-aminomethyl cyclopropane carboxylates (Z) as drugs in the treatment of pain” (Pierre Fabre S.A., priority 1981, dated 1985).
Where a name gives a salt, the structure may show the parent alone. Read-outs that look alike come from different tables or passages of the source.

Key:
[1] = Solubility in water; type: physicochemical
[2] = tested on: mice; test: Hot Plate, analgesic activity; type: in vivo
Experimental: The products were tested subcutaneously in mice (50 mg/kg) by the method of N. B. EDDY and D. LEIMBACH, J. Pharm. Exptl. Therap., 1953, 107, 385.

[3] = Toxicity study (ED50 orally and intraperitoneally, method of Miller and Tainter); settings: in vivo
Experimental: The most interesting compounds of the present invention were subjected to toxicity studies.
The ED50 was determined orally and intraperitoneally and calculated by the method of MILLER and TAINTER (Proc. Soc. Exper. […]. 1944, 57, 261).

[4] = tested on: mice; test: Writhing Syndrome (P.B.Q.), analgesic activity after I.P. p-benzoquinone; type: in vivo; settings: Mus musculus, po, P.O., read-out: Writhing Syndrome PBQ-ED50 (P.O.)
Experimental: (a) Writhing Syndrome (P.B.Q.)
After I.P. administration of p-benzoquinone to mice, the products were tested by the method of R. OKUN, S. C. LIDDON and L. LASAGNA, J. Pharmacol. Exptl. Therap., 1963, 139, 107. The results are expressed in ED50 in Table 1.

[5] = Solubility in DMA; type: physicochemical
[6] = ip, intraperitoneally, read-out: ED50 intraperitoneally
[7] = po, per os, read-out: ED50 per os

CCCCCN(C)C[C@H]1C[C@]1(C(=O)OCC)c1ccccc1 (relative stereo) [Example 18, Fumarate of 1-phenyl 1-ethoxycarbonyl 2-(N-methyl-N-pentylamino)methyl cyclopropane (Z)]
solubility [1]: 30 mg/mL

CC(C)OC(=O)[C@]1(c2ccccc2)C[C@@H]1CN(C)C (relative stereo) [Example 36, Hydrochloride of 1-phenyl 1-isopropyloxy-carbonyl 2-dimethylamino methyl cyclopropane (Z)]
Hot Plate reaction time ([2]; 50 mg/kg SC, mice): 40 s | LD50 [3, 6]: 130 mg/kg | LD50 [3, 7]: 400 mg/kg | ED50 [4]: 17 mg/kg

CCOC(=O)[C@]1(c2ccccc2)C[C@@H]1CN1CCN(c2ccccc2)CC1 (relative stereo) [Example 8, Dihydrochloride of 1-phenyl 1-ethoxycarbonyl 2-(4'-phenyl-piperazinomethyl)cyclopropane (Z)]
solubility [1]: 5 mg/mL

C#CC(C)(C)NC[C@H]1C[C@]1(C(=O)OCC)c1ccccc1 (relative stereo) [Example 12, Hydrochloride of 1-phenyl 1-ethoxycarbonyl-2-(1'-1'-dimethyl-2'-propynylaminomethyl)cyclopropane (Z)]
solubility [1]: 30 mg/mL

CCOC(=O)[C@]1(c2ccccc2)C[C@@H]1CN(C)Cc1ccccc1 (relative stereo) [Example 5, Hydrochloride of 1-phenyl 1-ethoxycarbonyl-2-(benzylmethylaminomethyl)cyclopropane (Z)]
solubility [1]: 100 mg/mL

CCOC(=O)[C@]1(c2ccccc2)C[C@@H]1CN(C)CC (relative stereo) [Example 17, Fumarate of 1-phenyl 1-ethoxycarbonyl 2-(N-methyl-N-ethyl-amino)methyl cyclopropane (Z)]
solubility [1]: 500 mg/mL

CCOC(=O)[C@]1(c2ccc(Cl)c(Cl)c2)C[C@@H]1CN(C)C (relative stereo) [Example 45, Hydrochloride of 1-(3,4 dichlorophenyl) 1-ethoxycarbonyl 2-dimethylaminomethyl cyclopropane (Z)]
Hot Plate reaction time ([2]; 50 mg/kg SC, mice): 26 s | LD50 [3, 6]: 170 mg/kg | LD50 [3, 7]: 550 mg/kg | ED50 [4]: 60 mg/kg

CCOC(=O)[C@]1(c2ccccc2)C[C@@H]1CN(Cc1ccccc1)Cc1ccccc1 (relative stereo) [Example 11, Hydrochloride of 1-phenyl-1-ethoxycarbonyl 2-dibenzyl amino-methyl cyclopropane (Z)]
Solubility in DMA [5]: 2% | Solubility in water (in words) [1]: insoluble in water

CN(C)C[C@H]1C[C@]1(C(=O)OCc1ccccc1)c1ccccc1 (relative stereo) [Example 37, Hydrochloride of 1-phenyl 1-benzyloxy carbonyl-2-dimethyl aminomethyl cyclopropane (Z)]
Hot Plate reaction time ([2]; 50 mg/kg SC, mice): 30 s | LD50 [3, 6]: 130 mg/kg | LD50 [3, 7]: 1000 mg/kg | ED50 [4]: 92 mg/kg

CCOC(=O)[C@]1(c2ccccc2)C[C@@H]1CNC(C)C (relative stereo) [Example 15, Hydrochloride of 1-phenyl 1-ethoxycarbonyl 2-isopropyl aminomethyl cyclopropane (Z)]
solubility [1]: 500 mg/mL

CCOC(=O)[C@]1(c2ccccc2)C[C@@H]1CN1CCCC1 (relative stereo) [Example 1, 1-phenyl 1-ethoxycarbonyl-2-pyrrolidinomethyl cyclopropane hydrochloride (Z)]
solubility [1]: 500 mg/mL

CCOC(=O)[C@]1(c2ccccc2)C[C@@H]1CNC (relative stereo) [Example 3, Hydrochloride of 1-phenyl 1-ethoxycarbonyl-2-methyl amino-methyl cyclopropane (Z)]
solubility [1]: 500 mg/mL

CCOC(=O)[C@]1(c2ccccc2)C[C@@H]1CN(C(C)C)C(C)C (relative stereo) [Example 16, Maleate of 1-phenyl 1-ethoxycarbonyl 2-diisopropyl aminomethyl cyclopropane (Z)]
solubility [1]: 100 mg/mL

CCOC(=O)[C@]1(c2ccccc2)C[C@@H]1CN1CCC(c2ccccc2)CC1 (relative stereo) [Example 20, Hydrochloride of 1-phenyl 1-ethoxycarbonyl 2-(4'-phenylpiperidino)methyl cyclopropane (Z)]
Solubility in DMA [5]: 50% | Solubility in water (in words) [1]: insoluble in water

CCOC(=O)[C@]1(c2ccccc2)C[C@@H]1CNCc1ccccc1 (relative stereo) [Example 14, Hydrochloride of 1-phenyl-1-ethoxycarbonyl 2-benzyl amino methyl cyclopropane (Z)]
solubility [1]: 10 mg/mL

COC(=O)[C@]1(c2ccccc2)C[C@@H]1CN(C)C (relative stereo) [Example 34, Hydrochloride of 1-phenyl 1-methoxycarbonyl 2-dimethyl-amino-methyl cyclopropane (Z)]
solubility [1]: 500 mg/mL

CCOC(=O)[C@]1(c2ccccc2)C[C@@H]1CN1CCOCC1 (relative stereo) [Example 9, Hydrochloride of 1-phenyl 1-ethoxycarbonyl 2-morpholino methyl cyclopropane (Z)]
solubility [1]: 500 mg/mL

CCOC(=O)[C@]1(c2ccccc2)C[C@@H]1CNC(C)(C)C (relative stereo) [Example 6, Hydrochloride of 1-phenyl 1-ethoxycarbonyl-2-tertbutylamino-methyl cyclopropane (Z)]
solubility [1]: 170 mg/mL

CCOC(=O)[C@]1(c2cccc(Cl)c2)C[C@@H]1CN(C)C (relative stereo) [Example 44, Maleate of 1-(m-chlorophenyl) 1-ethoxycarbonyl 2-dimethylaminomethyl cyclopropane (Z)]
Hot Plate reaction time ([2]; 50 mg/kg SC, mice): 28 s | LD50 [3, 6]: 170 mg/kg | LD50 [3, 7]: 760 mg/kg | ED50 [4]: 30 mg/kg

CCC(=O)O[C@](Cc1ccccc1)(c1ccccc1)[C@H](C)CN(C)C [Dextropropoxyphene, reference compound]
Hot Plate reaction time ([2]; mouse, in vivo): 30 s | ED50 [4]: 30 mg/kg

CCCOC(=O)[C@]1(c2ccccc2)C[C@@H]1CN(C)C (relative stereo) [Example 35, Fumarate of 1-phenyl 1-propyloxycarbonyl 2-dimethyl aminomethyl cyclopropane (Z)]
solubility [1]: 150 mg/mL

CCOC(=O)[C@]1(c2ccccc2)C[C@@H]1CNCCc1ccccc1 (relative stereo) [Example 2, Hydrochloride of 1-phenyl-1-ethoxycarbonyl-2-(2-phenylethyl)amino-methyl cyclopropane (Z)]
solubility [1]: 500 mg/mL

COC(=O)[C@]1(c2ccc([N+](=O)[O-])cc2)C[C@@H]1CN(C)C (relative stereo) [Example 47, Hydrochloride of 1-(p-nitrophenyl) 1-methoxycarbonyl 2-dimethylaminomethyl cyclopropane (Z)]
Hot Plate reaction time ([2]; 50 mg/kg SC, mice): 20 s | LD50 [3, 6]: 250 mg/kg | LD50 [3, 7]: 1000 mg/kg | ED50 [4]: 21 mg/kg

CCOC(=O)[C@]1(c2ccc(OC)cc2)C[C@@H]1CN(C)C (relative stereo) [Example 48, Hydrochloride of 1-(p-methoxyphenyl) 1-ethoxycarbonyl 2-dimethylaminomethyl cyclopropane (Z)]
Hot Plate reaction time ([2]; 50 mg/kg SC, mice): 29 s | LD50 [3, 6]: 110 mg/kg | LD50 [3, 7]: 420 mg/kg | ED50 [4]: 95 mg/kg

CCOC(=O)[C@]1(c2ccccc2)C[C@@H]1CN(C)CCO (relative stereo) [Example 10, Fumarate of 1-phenyl 1-ethoxycarbonyl 2-N-(2'-hydroxyethyl)N-methyl amino-methyl cyclopropane (Z)]
solubility [1]: 80 mg/mL

CCOC(=O)[C@]1(c2ccccc2)C[C@@H]1CN(CCO)CCO (relative stereo) [Example 7, Maleate of 1-phenyl 1-ethoxycarbonyl 2-di(2'-hydroxyethyl)amino-methyl cyclopropane (Z)]
solubility [1]: 500 mg/mL

COC(=O)[C@]1(c2ccc(N)cc2)C[C@@H]1CN(C)C (relative stereo) [Example 46]
Hot Plate reaction time ([2]; 50 mg/kg SC, mice): 25 s | LD50 [3, 6]: 100 mg/kg | LD50 [3, 7]: 420 mg/kg | ED50 [4]: 34 mg/kg

CCOC(=O)[C@]1(c2ccccc2)C[C@@H]1CN(C)CCc1ccccc1 (relative stereo) [Example 30]
Hot Plate reaction time ([2]; 50 mg/kg SC, mice): 20 s | LD50 [3, 6]: 110 mg/kg | LD50 [3, 7]: 1000 mg/kg | ED50 [4]: 80 mg/kg

CCOC(=O)[C@]1(c2ccc(Cl)cc2)C[C@@H]1CN(C)C (relative stereo) [Example 41, 1-(4'-chlorophenyl) 1-ethoxycarbonyl 2-dimethylaminomethyl cyclopropane (Z) hydrochloride]
Hot Plate reaction time ([2]; 50 mg/kg SC, mice): 39 s | LD50 [3, 6]: 120 mg/kg | LD50 [3, 7]: 400 mg/kg | ED50 [4]: 19 mg/kg

CCOCCNC[C@H]1C[C@]1(C(=O)OCC)c1ccccc1 (relative stereo) [Example 13, Hydrochloride of 1-phenyl 1-ethoxycarbonyl 2-(2'-ethoxyethylaminomethyl)cyclopropane (Z)]
solubility [1]: 500 mg/mL

CCOC(=O)[C@]1(c2ccccc2)C[C@@H]1CN(C)CCN(C)C (relative stereo) [Example 21, Dihydrochloride of 1-phenyl 1-ethoxycarbonyl-2-(N-methyl N-(2'-dimethylamino)ethyl)aminomethyl cyclopropane (Z)]
solubility [1]: 500 mg/mL

CCOC(=O)[C@]1(c2ccccc2)C[C@@H]1CN(CC)CC (relative stereo) [Example 4, Hydrochloride of 1-phenyl 1-ethoxycarbonyl-2-diethyl amino-methyl cyclopropane (Z)]
solubility [1]: 500 mg/mL
